# Legend:
# Test in all cases: ATPase modulation in proteoliposomes, malachite green
# Assay type in all cases: biochemical
# EfrEF [1] = target: T1, EfrEF (Enterococcus faecalis, UniProt Q832J9+Q832K0); conditions: 2.5 uM Hoechst 33342; 1 mM ATP, 10 mM MgSO4, pH 7.0, 30°C; bell-shaped curve
# T1 construct: gene EF_2226; full-length heterodimer, N-terminal deca-His tag on first chain cleaved with 3C protease, expressed in L. lactis NZ9000 dlmrA dlmrCD; proteoliposomes
# EfrAB = target: T2, EfrAB (Enterococcus faecalis, UniProt Q82ZX7+Q82ZX8); conditions: 20 uM Hoechst 33342; 1 mM ATP, 10 mM MgSO4, pH 7.0, 30°C; bell-shaped curve
# T2 construct: gene EF_2920; full-length heterodimer, N-terminal deca-His tag on first chain cleaved with 3C protease, expressed in L. lactis NZ9000 dlmrA dlmrCD; proteoliposomes
# EfrCD = target: T3, EfrCD (Enterococcus faecalis, UniProt Q837P4+Q837P5); conditions: 0.1-200 uM drug; 1 mM ATP, 10 mM MgSO4, pH 7.0, 30°C; bell-shaped curve
# T3 construct: gene EF_0789; full-length heterodimer, N-terminal deca-His tag on EfrC cleaved with 3C protease (tag present in cells), expressed in L. lactis NZ9000 dlmrA dlmrCD; proteoliposomes
# EfrEF [2] = target: T1, EfrEF; conditions: 0.1-200 uM drug; 1 mM ATP, 10 mM MgSO4, pH 7.0, 30°C; bell-shaped curve
# T1 sequence (Q832K0 entry or part of it): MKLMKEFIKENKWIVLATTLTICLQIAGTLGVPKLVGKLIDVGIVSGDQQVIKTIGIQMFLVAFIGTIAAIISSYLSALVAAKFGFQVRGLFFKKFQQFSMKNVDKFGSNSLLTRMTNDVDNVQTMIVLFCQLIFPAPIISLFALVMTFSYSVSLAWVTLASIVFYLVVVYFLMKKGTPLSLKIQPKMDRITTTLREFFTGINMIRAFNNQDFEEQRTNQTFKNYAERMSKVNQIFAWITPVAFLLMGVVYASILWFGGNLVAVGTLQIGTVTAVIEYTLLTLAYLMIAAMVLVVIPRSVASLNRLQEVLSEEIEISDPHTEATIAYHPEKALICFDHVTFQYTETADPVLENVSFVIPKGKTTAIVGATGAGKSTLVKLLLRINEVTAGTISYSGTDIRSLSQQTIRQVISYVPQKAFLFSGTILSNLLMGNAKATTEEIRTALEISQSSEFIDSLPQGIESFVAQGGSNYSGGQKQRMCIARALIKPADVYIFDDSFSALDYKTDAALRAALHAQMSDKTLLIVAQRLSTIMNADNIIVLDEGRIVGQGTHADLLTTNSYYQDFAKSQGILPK
# T1 sequence (Q832J9 entry or part of it): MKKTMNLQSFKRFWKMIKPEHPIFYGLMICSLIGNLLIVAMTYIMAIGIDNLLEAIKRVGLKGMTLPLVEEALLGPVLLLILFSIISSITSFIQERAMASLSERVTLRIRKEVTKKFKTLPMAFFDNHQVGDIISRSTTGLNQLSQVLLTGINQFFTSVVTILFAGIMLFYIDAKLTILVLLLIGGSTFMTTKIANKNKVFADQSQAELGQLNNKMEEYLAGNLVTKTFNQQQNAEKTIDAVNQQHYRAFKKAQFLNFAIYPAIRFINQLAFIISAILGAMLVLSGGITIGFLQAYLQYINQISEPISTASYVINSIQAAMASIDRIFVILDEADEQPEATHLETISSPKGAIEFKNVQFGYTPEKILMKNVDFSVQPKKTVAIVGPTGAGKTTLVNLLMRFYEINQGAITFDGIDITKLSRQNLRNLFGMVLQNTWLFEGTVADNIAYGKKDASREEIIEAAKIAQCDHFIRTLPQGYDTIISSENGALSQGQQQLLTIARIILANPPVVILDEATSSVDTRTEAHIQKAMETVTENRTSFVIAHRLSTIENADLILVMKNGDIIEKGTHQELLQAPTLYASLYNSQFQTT
# T2 sequence (Q82ZX8 entry or part of it): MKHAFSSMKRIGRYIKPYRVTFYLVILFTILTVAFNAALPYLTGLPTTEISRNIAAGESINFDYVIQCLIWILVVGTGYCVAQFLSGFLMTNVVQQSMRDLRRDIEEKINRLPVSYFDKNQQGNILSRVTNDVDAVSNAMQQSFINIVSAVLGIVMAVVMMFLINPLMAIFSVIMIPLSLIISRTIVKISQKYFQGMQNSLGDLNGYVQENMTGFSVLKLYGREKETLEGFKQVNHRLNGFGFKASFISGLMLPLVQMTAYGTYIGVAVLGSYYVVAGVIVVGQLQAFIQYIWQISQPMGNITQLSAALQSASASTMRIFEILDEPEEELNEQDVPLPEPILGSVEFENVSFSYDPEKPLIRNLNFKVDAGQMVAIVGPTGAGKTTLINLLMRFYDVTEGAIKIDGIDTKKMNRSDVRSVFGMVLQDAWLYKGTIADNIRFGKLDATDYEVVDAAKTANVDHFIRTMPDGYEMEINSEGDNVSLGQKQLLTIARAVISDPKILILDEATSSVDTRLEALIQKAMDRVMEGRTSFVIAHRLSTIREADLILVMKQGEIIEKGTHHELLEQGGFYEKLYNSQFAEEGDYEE
# T2 sequence (Q82ZX7 entry or part of it): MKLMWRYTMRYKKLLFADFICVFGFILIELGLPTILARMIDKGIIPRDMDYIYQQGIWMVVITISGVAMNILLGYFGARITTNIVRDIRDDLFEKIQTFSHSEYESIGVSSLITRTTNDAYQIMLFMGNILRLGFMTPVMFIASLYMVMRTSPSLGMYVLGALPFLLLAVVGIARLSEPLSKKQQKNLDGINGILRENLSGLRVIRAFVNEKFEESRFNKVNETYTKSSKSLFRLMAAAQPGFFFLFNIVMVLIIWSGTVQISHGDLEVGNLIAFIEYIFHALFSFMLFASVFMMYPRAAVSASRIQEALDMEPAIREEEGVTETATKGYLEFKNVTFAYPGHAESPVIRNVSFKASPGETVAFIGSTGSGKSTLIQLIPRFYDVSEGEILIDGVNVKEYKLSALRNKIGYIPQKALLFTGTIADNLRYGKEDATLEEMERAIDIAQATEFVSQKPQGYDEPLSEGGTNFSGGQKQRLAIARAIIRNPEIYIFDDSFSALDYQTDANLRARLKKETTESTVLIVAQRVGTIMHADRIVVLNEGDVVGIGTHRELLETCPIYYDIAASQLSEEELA
# T3 sequence (Q837P5 entry or part of it): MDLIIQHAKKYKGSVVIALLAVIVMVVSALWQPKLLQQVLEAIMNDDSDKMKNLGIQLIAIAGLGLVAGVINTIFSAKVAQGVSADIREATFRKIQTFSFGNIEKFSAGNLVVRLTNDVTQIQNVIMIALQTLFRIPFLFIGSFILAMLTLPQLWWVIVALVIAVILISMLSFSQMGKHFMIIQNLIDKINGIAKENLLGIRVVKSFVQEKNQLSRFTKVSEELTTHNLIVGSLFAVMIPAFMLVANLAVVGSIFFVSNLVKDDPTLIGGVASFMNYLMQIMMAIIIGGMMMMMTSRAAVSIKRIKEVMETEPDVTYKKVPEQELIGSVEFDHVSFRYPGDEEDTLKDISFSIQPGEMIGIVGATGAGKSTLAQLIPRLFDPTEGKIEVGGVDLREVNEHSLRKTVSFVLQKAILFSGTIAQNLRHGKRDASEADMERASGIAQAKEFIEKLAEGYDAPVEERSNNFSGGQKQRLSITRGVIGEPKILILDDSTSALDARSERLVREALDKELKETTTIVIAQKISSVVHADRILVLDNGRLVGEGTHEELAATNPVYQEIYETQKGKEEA
# T3 sequence (Q837P4 entry or part of it): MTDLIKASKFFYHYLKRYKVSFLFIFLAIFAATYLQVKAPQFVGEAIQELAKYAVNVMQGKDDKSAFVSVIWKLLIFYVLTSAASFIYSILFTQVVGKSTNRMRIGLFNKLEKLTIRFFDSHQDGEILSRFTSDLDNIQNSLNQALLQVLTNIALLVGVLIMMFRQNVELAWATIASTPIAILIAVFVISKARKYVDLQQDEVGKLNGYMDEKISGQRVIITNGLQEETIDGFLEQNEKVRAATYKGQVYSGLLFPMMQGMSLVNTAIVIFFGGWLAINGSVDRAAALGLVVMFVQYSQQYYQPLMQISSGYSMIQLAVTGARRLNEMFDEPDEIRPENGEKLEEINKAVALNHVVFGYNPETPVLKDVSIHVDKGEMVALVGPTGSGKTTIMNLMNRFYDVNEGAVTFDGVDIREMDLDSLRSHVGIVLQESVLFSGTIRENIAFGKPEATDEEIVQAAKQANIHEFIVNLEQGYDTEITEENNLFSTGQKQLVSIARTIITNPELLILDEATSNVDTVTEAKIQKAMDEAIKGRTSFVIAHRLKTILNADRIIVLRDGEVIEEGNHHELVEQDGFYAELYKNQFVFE
structure (smiles),measurement,setting,value
CCOc1ccc(-c2nc3ccc(-c4nc5ccc(N6CCN(C)CC6)cc5[nH]4)cc3[nH]2)cc1 [Hoechst 33342],maximal ATPase stimulation (basal = 100%),EfrEF [1],130%
same,maximal ATPase stimulation (basal = 100%),EfrAB,165%
COc1cccc2c1C(=O)c1c(O)c3c(c(O)c1C2=O)C[C@@](O)(C(C)=O)C[C@@H]3O[C@H]1C[C@H](N)[C@H](O)[C@H](C)O1 [daunorubicin],drug-modulated ATPase activity,EfrCD,a strong response in the form of a bell-shaped curve was seen for EfrCD
CC[n+]1c(-c2ccccc2)c2cc(N)ccc2c2ccc(N)cc21 [ethidium],drug-modulated ATPase activity,EfrEF [2],"For ethidium, a bell-shaped curve with a large magnitude was observed for EfrEF"
